Data as given in US10538567B2, “Compounds as peptidic trigonal GLP1/glucagon/GIP receptor agonists” (priority 2016, dated 2020).
Numbered stars: 1 amine (or outer) side, 2 acyl side, 3 side chain; on linkers, the order of the positions; unused ones are H or OH. Square brackets hold non-standard residues; d marks the D form. Side chains are listed from the residue outwards. Peptide text beside a SMILES is read from it. * marks the point of attachment. γGlu = O=C(O)[C@H](CCC(=O)[*:2])N[*:1]; Stearoyl = CCCCCCCCCCCCCCCCCC(=O)*; Palmitoyl = CCCCCCCCCCCCCCCC(=O)*; AEEA = NCCOCCOCC(=O)O; Aib = CC(C)(N)C(=O)O

System: not listed separately
Assay: Thioflavin T (ThT) assay for physical stability (fibrillation)
Format: physicochemical
Settings: 3 mg/ml, 100 mM acetate pH 4.5 with m-cresol, 37° C. shaking
From the text: Low physical stability of a peptide solution may lead to amyloid fibril formation, which is observed as well-ordered, thread-like macromolecular structures in the sample, which eventually may lead to gel formation. Thioflavin T (ThT) is widely used to visualize and quantify the presence of misfolded protein aggregates. [Biancalana et al. (2010) Biochimica et Biophysica Acta. 1804 (7): 1405-1412]. […] Enzymol. 309, 274-284]. The time course for fibril formation often follows the characteristic shape of a sigmoidal curve and can be separated into three regions: a lag phase, a fast growth phase, and a plateau phase.
The typical fibril formation process starts with the lag phase in which the amount of partially folded peptide turned into fibrils is not significant enough to be detected. The lag-time corresponds to the time the critical mass of the nucleus is built. Afterwards, a drastic elongation phase follows and fibril concentration increases rapidly.
Investigations were carried out to determine fibrillation tendencies under stress conditions by shaking at 37° C. within Fluoroskan Ascent FL.
For the tests in Fluoroskan Ascent FL, 200 μL sample were placed into a 96 well mictrotiter plate PS, flat bottom, Greiner Fluotrac No. 655076. Plates were sealed with Scotch Tape (Quiagen). Samples were stressed by continuous cycles of 10 s shaking at 960 rpm and 50 s rest period at 37° C. The kinetic was monitored by measuring fluorescence intensity every 20 minutes.
Peptides were diluted in a buffer system to a final concentration of 3 mg/ml. 20 μL of a 10.1 mM ThT solution in H2O were added to 2 mL of peptide solution to receive a final concentration of 100 μM ThT. For each sample eight replicates were tested.
Tht buffer system A) 100 mM Acetate pH 4.5 including m-cresol (100 mM Natriumacetat trihydrat, pH adjustment using 2N CH3COOH, 2.7 mg/mL m-cresol) Tht buffer system B) 100 mM citrate buffer pH 6.0
Lag time in hours in Thioflavin T (ThT) assay of peptide samples was determined in ThT buffer system A as described in Methods.

Question: Which “Lag time before increase” value does the source give for `CCCCCCCCCCCCCCCC(=O)N[C@@H](CCC(=O)NCCCC[C@H](NC(=O)[C@H](CC(C)C)NC(=O)[C@H](CCCCN)NC(=O)[C@H](CO)NC(=O)[C@H](CC(C)C)NC(=O)[C@H](CC(=O)O)NC(=O)[C@H](CO)NC(=O)[C@@H](NC(=O)[C@H](Cc1ccccc1)NC(=O)[C@@H](NC(=O)CNC(=O)[C@H](Cc1c[nH]cn1)NC(=O)C(C)(C)NC(=O)[C@@H](N)Cc1c[nH]cn1)[C@@H](C)O)[C@@H](C)O)C(=O)N[C@@H](CCC(=O)O)C(=O)N[C@@H](CCC(=O)O)C(=O)N[C@@H](CCC(N)=O)C(=O)N[C@@H](CCCNC(=N)N)C(=O)N[C@@H](CCC(N)=O)C(=O)NC(C)(C)C(=O)N[C@@H](CCC(=O)O)C(=O)N[C@@H](Cc1ccccc1)C(=O)N[C@H](C(=O)N[C@@H](CCC(=O)O)C(=O)N[C@@H](Cc1c[nH]c2ccccc12)C(=O)N[C@@H](CC(C)C)C(=O)N[C@@H](CCCCN)C(=O)N[C@@H](C)C(=O)NCC(=O)NCC(=O)N1CCC[C@H]1C(=O)N1CCC[C@H]1C(=O)N[C@@H](CO)C(=O)NC(C)(C)C(=O)N[C@@H](CCCCN)C(=O)N1CCC[C@H]1C(=O)N1CCC[C@H]1C(=O)N1CCC[C@H]1C(=O)N[C@@H](CCCCN)C(N)=O)[C@@H](C)CC)C(=O)O` [SEQ ID NO: 18, H-Aib-H-G-T-F-T-S-D-L-S-K-L-K[gGlu-Palm]-E-E-Q-R-Q-Aib-E-F-I-E-W-L-K-A-G-G-P-P-S-Aib-K-P-P-P-K-NH2] here?
Answer: >45 h

Question: With `CCCCCCCCCCCCCCCCCC(=O)N[C@@H](CCC(=O)NCCCC[C@H](NC(=O)[C@H](CC(C)C)NC(=O)[C@H](CCCCN)NC(=O)[C@H](CO)NC(=O)[C@H](CC(C)C)NC(=O)[C@H](CC(=O)O)NC(=O)[C@H](CO)NC(=O)[C@@H](NC(=O)[C@H](Cc1ccccc1)NC(=O)[C@@H](NC(=O)CNC(=O)[C@H](Cc1c[nH]cn1)NC(=O)C(C)(C)NC(=O)[C@@H](N)Cc1c[nH]cn1)[C@@H](C)O)[C@@H](C)O)C(=O)N[C@@H](CCC(=O)O)C(=O)N[C@@H](CCC(=O)O)C(=O)N[C@@H](CCC(N)=O)C(=O)N[C@@H](CCCNC(=N)N)C(=O)N[C@@H](CCC(N)=O)C(=O)NC(C)(C)C(=O)N[C@@H](CCC(=O)O)C(=O)N[C@@H](Cc1ccccc1)C(=O)N[C@H](C(=O)N[C@@H](CCC(=O)O)C(=O)N[C@@H](Cc1c[nH]c2ccccc12)C(=O)N[C@@H](CC(C)C)C(=O)N[C@@H](CCCCN)C(=O)N[C@@H](C)C(=O)NCC(=O)NCC(=O)N1CCC[C@H]1C(=O)N1CCC[C@H]1C(=O)N[C@@H](CO)C(=O)NC(C)(C)C(=O)N[C@@H](CCCCN)C(=O)N1CCC[C@H]1C(=O)N1CCC[C@H]1C(=O)N1CCC[C@H]1C(=O)N[C@@H](CCCCN)C(N)=O)[C@@H](C)CC)C(=O)O` [SEQ ID NO: 19, H-Aib-H-G-T-F-T-S-D-L-S-K-L-K[gGlu-Stea]-E-E-Q-R-Q-Aib-E-F-I-E-W-L-K-A-G-G-P-P-S-Aib-K-P-P-P-K-NH2] (H-H[Aib]HGTFTSDLSKLK([γGlu-Stearoyl])EEQRQ[Aib]EFIEWLKAGGPPS[Aib]KPPPK-NH2) as the compound, how does the “Lag time before increase” value read?
Answer: >45 h

System: female diabetic db/db mice
Assay: Acute effects after s.c. treatment on blood glucose in non-fasting female diabetic db/db mice
Format: in vivo
Settings: single 30 μg/kg s.c.
Experimental: Female healthy, lean BKS.Cg-(lean)/OlaHsd and diabetes-prone, obese BKS.Cg-+Lepr^db/+Lepr^db/OlaHsd mice were ordered group housed from Envigo RMS Inc., shipped group housed and remained group housed in shoebox caging with wood chip bedding until day 15 of the predose phase. At the study start mice were approximately 12 weeks old.
Mice were housed under vivarium conditions including a 12 h light/dark cycle (light phase 04:00 AM-4:00 PM), room temperatures between 23-26° C. and a relative humidity between 30-70%. All animals had free access to water and Purina Fomulab Diet 5008.
On predose day 9 blood glucose and body mass (approximately between 08:00-10:00 AM) as well as HbA1c measurements were performed. On day 15 of the predose phase animals were assigned to treatment groups (n=8) and to new cages to match mean HbA1c and body masses between all db/db groups. An age-matched lean group was included in the study as a healthy, lean reference.
Prior to day 1 of the dosing phase, the test article was diluted with Phosphate Buffered Saline (PBS, Gibco, without CaCl2 and MgCl2) to a concentration of 1 mg/mL and aliquots of this stock solution were stored at approximately ≤−60° C. On day 1 of the dosing phase the stock aliquot was thawed and the injected test article solution was prepared fresh by diluting it with PBS to achieve the desired concentration.
On Day 1 of the dosing phase db/db mice were either treated once with a s.c. injection of PBS-vehicle or 30 μg/kg test article. The lean reference group was treated once with a s.c. injection of PBS-vehicle. The dosing was initiated and completed between 08:00 and 10:00 AM. The applied volume was 5 ml/kg and the dose was adjusted to the most recent body mass recording of each individual.
Animals had unlimited access to water and feed during the experiment. On day 1 of the dosing phase approximately 5 μL of blood were collected via tail clips at minute −30 and 0 prior to any other inlife activities. At minute 0 mice received a s.c. dose of either PBS-vehicle or 30 μg/kg test article. Further blood samples were harvested at hour 0.25, 0.5, 1, 1.5, 2, 3, 4, 6, 8, and 24 post-dose. Glucose measurements were performed in whole blood using AlphaTRAK glucometers. If the glucose concentrations of two measurements differed by more than 20 mg/dL a third value was recorded. The Area Under the Curve (AUC) for blood glucose was calculated via the trapezoid method and for the duration of the 24 post-dose hours.
In the Figures data are depicted as means±SEM. […] A One Way Analysis of Variance and multiple comparisons (Dunnett's Method) were performed comparing the group of diabetic, obese db/db vehicle mice (n=8) with each diabetic, obese db/db test article treated mice (n=8). […] Non-diabetic, lean-vehicle group data are depicted in the Figures serving as a reference dataset for the non-obese, non-diabetic state.

Question: For “H-Aib-H-G-T-F-T-S-D-L-S-K-L-K[gGlu-gGlu-AEEA-Palm]-E-E-Q-R-Q-Aib-E-F-I-E-W-L-K-A-G-G-P-P-S-Aib-K-P-P-P-K-NH2 (H-H[Aib]HGTFTSDLSKLK([γGlu-γGlu-AEEA-Palmitoyl])EEQRQ[Aib]EFIEWLKAGGPPS[Aib]KPPPK-NH2) [SEQ ID NO: 26]”, which “mean blood glucose concentration 24 hours post-dose relative to baseline” value is on record?
Answer: at or close to baseline
